According to ChEMBL document CHEMBL5674872, “JMJD3 aids in reprogramming of bone marrow progenitor cells to hepatic phenotype through epigenetic activation of hepatic transcription factors” (PLoS One, 2017):
Calls of active or inactive are those of the source.

Tests used:
Settings in all cases: time 14.0 day
[1] = biological target: Lysine-specific demethylase 6B (Mus musculus) (UniProt Q5NCY0); experiment: Inhibition of JMJD3 expression in Bl6/J female eGFP-expressing mouse Lin-BM cells assessed as H3K27me3 enrichments level at promoters of GATA4 at 100 nM incubated for 14 days by ChIP-qPCR method; assay type: cell-based
[2] = biological target: Lysine-specific demethylase 6B (Mus musculus) (UniProt Q5NCY0); experiment: Inhibition of JMJD3 expression in Bl6/J female eGFP-expressing mouse Lin-BM cells assessed as H3K27me3 enrichments level at promoters of HNF3-alpha at 100 nM incubated for 14 days by ChIP-qPCR method; assay type: cell-based
[3] = biological target: Lysine-specific demethylase 6B (Mus musculus) (UniProt Q5NCY0); experiment: Inhibition of JMJD3 expression in Bl6/J female eGFP-expressing mouse Lin-BM cells assessed as H3K27me3 enrichments level at promoters of HNF4-alpha at 100 nM incubated for 14 days by ChIP-qPCR method; assay type: cell-based
[4] = biological target: Lysine-specific demethylase 6B (Mus musculus) (UniProt Q5NCY0); experiment: Inhibition of JMJD3 expression in Bl6/J female eGFP-expressing mouse Lin-BM cells assessed as H3K27me3 enrichments level at promoters of HNF1-alpha at 100 nM incubated for 14 days by ChIP-qPCR method; assay type: cell-based
[5] = biological target: Lysine-specific demethylase 6B (Mus musculus) (UniProt Q5NCY0); experiment: Inhibition of JMJD3 expression in Bl6/J female eGFP-expressing mouse Lin-BM cells assessed as H3K27me3 enrichments level at promoters of HNF3-beta at 100 nM incubated for 14 days by ChIP-qPCR method; assay type: cell-based
[6] = biological target: Lysine-specific demethylase 6B (Mus musculus) (UniProt Q5NCY0); experiment: Inhibition of JMJD3 expression in Bl6/J female eGFP-expressing mouse Lin-BM cells assessed as prevention of loss of H3K27me3 chromatin mark at 100 nM incubated for 14 days by immuno-cytochemical analysis; assay type: cell-based
[7] = tested on: Lin-BM; experiment: Inhibition of JMJD3 expression in Bl6/J female eGFP-expressing mouse Lin-BM cells at 100 nM incubated for 14 days by immuno-cytochemistry analysis; assay type: functional, cell-based
[8] = biological target: Lysine-specific demethylase 6B (Mus musculus) (UniProt Q5NCY0); experiment: Inhibition of JMJD3 expression in Bl6/J female eGFP-expressing mouse Lin-BM cells assessed as reduction in hepatic differentiation at 100 nM incubated for 14 days by immuno-cytochemistry analysis; assay type: cell-based
[9] = biological target: Lysine-specific demethylase 6B (Mus musculus) (UniProt Q5NCY0); experiment: Inhibition of JMJD3 expression in Bl6/J female eGFP-expressing mouse Lin-BM cells assessed as H3K27me3 enrichments level at promoters of CEBP-alpha at 100 nM incubated for 14 days by ChIP-qPCR method; assay type: cell-based

Measured: inhibition

Sequence of Lysine-specific demethylase 6B (Mus musculus) (Q5NCY0 whole entry): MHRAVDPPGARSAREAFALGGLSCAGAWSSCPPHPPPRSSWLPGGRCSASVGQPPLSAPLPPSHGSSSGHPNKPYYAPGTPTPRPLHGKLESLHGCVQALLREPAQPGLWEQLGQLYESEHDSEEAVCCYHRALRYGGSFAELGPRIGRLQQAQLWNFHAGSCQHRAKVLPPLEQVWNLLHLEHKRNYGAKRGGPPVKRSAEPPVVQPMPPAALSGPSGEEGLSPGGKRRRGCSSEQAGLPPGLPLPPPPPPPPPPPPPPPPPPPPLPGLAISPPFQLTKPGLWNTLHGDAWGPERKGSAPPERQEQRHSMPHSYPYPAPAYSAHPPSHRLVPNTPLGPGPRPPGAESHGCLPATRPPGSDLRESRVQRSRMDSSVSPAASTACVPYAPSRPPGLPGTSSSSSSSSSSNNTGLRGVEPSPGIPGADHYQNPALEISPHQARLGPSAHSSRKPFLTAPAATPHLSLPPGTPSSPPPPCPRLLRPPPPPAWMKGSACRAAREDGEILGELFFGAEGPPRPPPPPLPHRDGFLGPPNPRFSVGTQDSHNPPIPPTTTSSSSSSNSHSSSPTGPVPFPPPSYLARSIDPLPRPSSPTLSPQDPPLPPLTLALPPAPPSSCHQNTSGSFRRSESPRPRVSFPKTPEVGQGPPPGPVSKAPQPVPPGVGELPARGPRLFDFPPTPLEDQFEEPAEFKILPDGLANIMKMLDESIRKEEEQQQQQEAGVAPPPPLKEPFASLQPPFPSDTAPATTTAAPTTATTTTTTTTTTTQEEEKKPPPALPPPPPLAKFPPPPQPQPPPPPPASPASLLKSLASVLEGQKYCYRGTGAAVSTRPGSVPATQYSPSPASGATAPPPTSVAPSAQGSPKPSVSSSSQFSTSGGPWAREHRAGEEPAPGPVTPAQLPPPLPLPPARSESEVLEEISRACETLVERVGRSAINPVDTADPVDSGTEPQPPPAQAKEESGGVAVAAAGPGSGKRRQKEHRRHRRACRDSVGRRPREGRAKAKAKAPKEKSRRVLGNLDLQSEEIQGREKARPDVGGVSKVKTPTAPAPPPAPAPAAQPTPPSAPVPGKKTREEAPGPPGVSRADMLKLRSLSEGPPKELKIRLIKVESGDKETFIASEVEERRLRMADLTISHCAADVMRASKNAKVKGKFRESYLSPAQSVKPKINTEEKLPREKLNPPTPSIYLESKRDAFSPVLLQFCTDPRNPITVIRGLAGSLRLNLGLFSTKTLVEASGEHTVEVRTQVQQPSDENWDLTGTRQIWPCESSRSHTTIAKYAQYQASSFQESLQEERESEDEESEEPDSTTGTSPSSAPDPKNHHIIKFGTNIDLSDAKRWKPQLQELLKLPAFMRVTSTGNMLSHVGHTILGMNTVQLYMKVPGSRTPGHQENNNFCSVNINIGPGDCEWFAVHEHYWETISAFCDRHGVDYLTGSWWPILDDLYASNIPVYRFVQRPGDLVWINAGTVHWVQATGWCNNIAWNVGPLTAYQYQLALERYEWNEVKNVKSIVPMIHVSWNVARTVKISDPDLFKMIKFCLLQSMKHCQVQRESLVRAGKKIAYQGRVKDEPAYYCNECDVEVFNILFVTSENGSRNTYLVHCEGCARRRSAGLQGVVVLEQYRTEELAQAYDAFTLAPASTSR

CCOC(=O)CCNc1cc(N2CCc3ccccc3CC2)nc(-c2ccccn2)n1
active: all assays above
